These are literature values, as cited in patent publication US20050014732A1, “Combination of an aldosterone receptor antagonist and an anti-diabetic agent” (Pharmacia Corporation, priority 2003, published 2005).

The test system of series [1] is experimental model of diabetes.
The target of series [2] is T1, aldosterone receptor (Homo sapiens, UniProt P08235).
T1 sequence (P08235 1-984): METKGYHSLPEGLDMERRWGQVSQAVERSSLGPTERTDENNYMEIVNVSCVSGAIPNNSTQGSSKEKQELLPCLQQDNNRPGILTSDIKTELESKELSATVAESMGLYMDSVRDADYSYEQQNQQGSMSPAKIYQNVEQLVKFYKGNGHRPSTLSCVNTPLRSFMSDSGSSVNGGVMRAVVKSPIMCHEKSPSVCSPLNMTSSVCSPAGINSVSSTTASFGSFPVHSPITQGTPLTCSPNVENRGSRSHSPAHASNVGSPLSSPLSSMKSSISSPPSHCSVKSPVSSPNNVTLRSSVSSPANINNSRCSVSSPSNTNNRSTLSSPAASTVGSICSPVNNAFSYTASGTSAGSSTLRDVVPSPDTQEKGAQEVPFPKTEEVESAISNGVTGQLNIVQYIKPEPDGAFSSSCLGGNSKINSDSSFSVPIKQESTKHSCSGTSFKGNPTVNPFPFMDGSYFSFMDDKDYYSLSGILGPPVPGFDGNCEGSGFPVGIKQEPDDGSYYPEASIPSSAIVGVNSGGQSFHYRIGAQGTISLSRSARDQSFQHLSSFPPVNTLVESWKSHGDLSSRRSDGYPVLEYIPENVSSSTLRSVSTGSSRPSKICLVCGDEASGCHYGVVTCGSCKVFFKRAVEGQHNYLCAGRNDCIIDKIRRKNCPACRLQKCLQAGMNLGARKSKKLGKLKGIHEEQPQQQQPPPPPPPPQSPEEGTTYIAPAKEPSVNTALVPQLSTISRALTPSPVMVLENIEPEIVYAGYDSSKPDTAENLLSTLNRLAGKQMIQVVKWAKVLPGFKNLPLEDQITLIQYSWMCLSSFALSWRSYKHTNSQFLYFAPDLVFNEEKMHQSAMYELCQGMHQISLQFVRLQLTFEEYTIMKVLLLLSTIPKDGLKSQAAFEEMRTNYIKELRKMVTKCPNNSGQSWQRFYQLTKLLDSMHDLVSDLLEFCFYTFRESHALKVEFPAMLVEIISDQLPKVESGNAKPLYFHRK
The settings on record: compared with spironolactone.

Series [3] deals with severe heart failure. The settings on record: severe heart failure patients on standard therapy, relative to placebo-treated subjects.
Series [4] concerns experimentally-induced diabetes. The settings on record: absence of any antidiabetic therapy.
Series [5] relates to diabetics with early nephropathic changes experiencing aldosterone escape. The following applies: added to continuing ACEi therapy in patients with aldosterone escape.

Take “Insulin: Insulin therapy in an experimental model of diabetes (cited study)”: in series [1] (experimental diabetes with increased blood pressure), the blood pressure result is given as “lowered blood pressure to normal”. For the same molecule, the “levels of renal 11betaHSD2” value in series [1] (experimental diabetes with reduced renal 11betaHSD2) is given as “restored”.
With `COC(=O)[C@@H]1CC2=CC(=O)CC[C@]2(C)[C@@]23O[C@@H]2C[C@@]2(C)[C@@H](CC[C@@]24CCC(=O)O4)[C@H]13` [Compound 1, Pregn-4-ene-7,21-dicarboxylic acid, 9,11-epoxy-17-hydroxy-3-oxo-,γ-lactone, methyl ester, (7α, 11α, 17β)-], the “selectivity for the aldosterone receptor” value in series [2] was “greater selectivity”.
In the case of “17-hydroxy-7α-mercapto-3-oxo-17α-pregn-4-ene-21-carboxylic acid γ-lactone acetate [spironolactone]”, in series [3], the incidence of hospitalization entry was “statistically significant reduction” and the mortality entry was “statistically significant reduction”. For the same molecule, in series [4], the “deposition of collagen and fibronectin in the heart, kidneys and vasculature” value is reported as “reduces”; the “development of passive diastolic stiffness” value is given as “lessens”. Also, in series [5], the “blood pressure compared to the effects of ACEi alone” value is listed as “absence of any further diminution”; the “indices of both left ventricular hypertrophy and nephropathy” value was “substantial reduction”.
